According to ChEMBL document CHEMBL1148857, “In vitro and in vivo profile of 5-[(4'-trifluoromethyl-biphenyl-2-carbonyl)-amino]-1H-indole-2-carboxylic acid benzylmethyl carbamoylamide (dirlotapide), a novel potent MTP inhibitor for obesity” (Bioorg Med Chem Lett, 2007):
Activity calls are given as the source filed them. The rule behind the calls is not given here.

Tests used:
[1] = organism: Homo sapiens; test: Inhibition of kainate receptor at 1 uM
[2] = molecular target: Histamine H2 receptor (Homo sapiens) (UniProt P25021); test: Inhibition of histamine H2 receptor at 1 uM
[3] = molecular target: Histamine H3 receptor (Homo sapiens) (UniProt Q9Y5N1); test: Inhibition of histamine H3 receptor at 1 uM
[4] = organism: Homo sapiens; test: Inhibition of NMDA receptor at 1 uM
[5] = molecular target: Adenosine receptor A1 (Homo sapiens) (UniProt P30542); test: Inhibition of adenosine A1 receptor at 1 uM
[6] = molecular target: Type-2 angiotensin II receptor (Homo sapiens) (UniProt P50052); test: Inhibition of AT2 receptor at 1 uM
[7] = organism: Homo sapiens; test: Inhibition of central benzodiazepine receptor at 1 uM
[8] = molecular target: B2 bradykinin receptor (Homo sapiens) (UniProt P30411); test: Inhibition of bradykinin B2 receptor at 1 uM
[9] = molecular target: D(3) dopamine receptor (Homo sapiens) (UniProt P35462); test: Inhibition of dopamine D3 receptor at 1 uM
[10] = molecular target: 5-hydroxytryptamine receptor 1A (Homo sapiens) (UniProt P08908); test: Inhibition of 5HT1A receptor at 1 uM
[11] = molecular target: 5-hydroxytryptamine receptor 2A (Homo sapiens) (UniProt P28223); test: Inhibition of 5HT2A receptor at 1 uM
[12] = molecular target: Serotonin 3 (5-HT3) receptor (Homo sapiens) (UniProt P46098+A5X5Y0+O95264+Q70Z44+Q8WXA8); test: Inhibition of 5HT3 receptor at 1 uM; type: protein-complex assay
[13] = molecular target: Melanocortin receptor 4 (Homo sapiens) (UniProt P32245); test: Inhibition of melanocortin MC4 receptor at 1 uM
[14] = molecular target: Muscarinic acetylcholine receptor M4 (Homo sapiens) (UniProt P08173); test: Inhibition of muscarinic M4 receptor at 1 uM
[15] = molecular target: Delta-type opioid receptor (Homo sapiens) (UniProt P41143); test: Inhibition of delta opioid receptor at 1 uM
[16] = molecular target: Platelet-activating factor receptor (Homo sapiens) (UniProt P25105); test: Inhibition of platelet activating factor receptor at 1 uM
[17] = organism: Homo sapiens; test: Inhibition of tachykinin receptor at 1 uM
[18] = organism: Homo sapiens; test: Inhibition of N-type calcium channel at 1 uM
[19] = Permeability from apical to basolateral side of the Caco-2 cell membrane at 1 uM in presence of calcium; type: ADME, cell-based; details: human
[20] = Intrinsic clearance in monkey microsomes; type: ADME, Macaca mulatta, Microsome; details: rhesus monkey
[21] = Intrinsic clearance in human microsomes; type: ADME, Microsome
[22] = Metabolic stability in human liver microsome at 0.5 uM; type: ADME; details: liver microsomes
[23] = system: CYP2C19; test: Metabolic stability in human liver microsome at 0.5 uM in presence of 200 uM CYP2C19 inhibitor (S)-mephenytoin; type: ADME; details: liver microsomes, with 200 uM (S)-mephenytoin (CYP2C19 inhibitor)
[24] = system: CYP2D6; test: Metabolic stability in human liver microsome at 0.5 uM in presence of 5 uM CYP2D6 inhibitor quinidine; type: ADME; details: liver microsomes, with 5 uM quinidine (CYP2D6 inhibitor)
[25] = system: CYP1A2; test: Metabolic stability in human liver microsome at 0.5 uM in presence of 5 uM CYP1A2 inhibitor furafylline; type: ADME; details: liver microsomes, with 5 uM furafylline (CYP1A2 inhibitor)
[26] = system: Plasma; test: Percentage unbound ligand in monkey blood at 0.2 uM; type: ADME, cell-free, Macaca mulatta; details: rhesus monkey
[27] = system: Plasma; test: Percentage unbound ligand in human blood at 0.2 uM; type: ADME, cell-free
[28] = Ratio of drug level in blood to plasma in dog; type: ADME, cell-free, Canis lupus familiaris; details: blood and plasma, read-out: BPR
[29] = organism: Mus musculus; test: Inhibition of hepatic MTP in mouse assessed as reduction of triglyceride; type: functional
[30] = Plasma clearance in rat at 1 mg/kg, iv; type: ADME, organism-based; parameters: dose 1 mg/kg, route intravenous
[31] = Plasma clearance in rat at 5 mg/kg, iv; type: ADME, organism-based; parameters: dose 5 mg/kg, route intravenous
[32] = Plasma clearance in Beagle dog at 0.5 mg/kg, iv; type: ADME, organism-based, Canis lupus familiaris; parameters: dose 0.5 mg/kg, route intravenous
[33] = Plasma clearance in monkey at 0.5 mg/kg, iv; type: ADME, organism-based, Macaca mulatta; parameters: dose 0.5 mg/kg, route intravenous; details: rhesus monkey
[34] = Volume of distribution at steady state in rat at 5 mg/kg, iv; type: ADME, organism-based; parameters: dose 5 mg/kg, route intravenous; details: in vivo, read-out: Vdss
[35] = Volume of distribution at steady state in Beagle dog at 0.5 mg/kg, iv; type: ADME, organism-based, Canis lupus familiaris; parameters: dose 0.5 mg/kg, route intravenous; details: in vivo, read-out: Vdss
[36] = Half life in rat at 5 mg/kg, iv; type: ADME, organism-based; parameters: dose 5 mg/kg, route intravenous; details: in vivo
[37] = Half life in Beagle dog at 1 mg/kg, iv; type: ADME, organism-based, Canis lupus familiaris; parameters: dose 1 mg/kg, route intravenous; details: in vivo
[38] = Half life in portal cannulated Beagle dog at 1 mg/kg, iv; type: ADME, organism-based, Canis lupus familiaris; parameters: dose 1 mg/kg, route intravenous; details: in vivo
[39] = AUC (0 to t) in rat at 1 mg/kg, iv; type: ADME, organism-based; parameters: dose 1 mg/kg, route intravenous; details: plasma
[40] = AUC (0 to t) in Beagle dog at 0.5 mg/kg, iv; type: ADME, organism-based, Canis lupus familiaris; parameters: dose 0.5 mg/kg, route intravenous; details: plasma
[41] = AUC (0 to infinity) in Beagle dog at 1 mg/kg, iv; type: ADME, organism-based, Canis lupus familiaris; parameters: time infinity, dose 1 mg/kg, route intravenous; details: plasma
[42] = AUC (0 to infinity) in portal cannulated Beagle dog at 1 mg/kg, iv; type: ADME, organism-based, Canis lupus familiaris; parameters: time infinity, dose 1 mg/kg, route intravenous; details: plasma
[43] = Half life in rat at 3 mg/kg, po; type: ADME, organism-based; parameters: dose 3 mg/kg, route oral; details: in vivo
[44] = Half life in rat at 30 mg/kg, po; type: ADME, organism-based; parameters: dose 30 mg/kg, route oral; details: in vivo
[45] = Half life in Beagle dog at 0.5 mg/kg, po; type: ADME, organism-based, Canis lupus familiaris; parameters: dose 0.5 mg/kg, route oral; details: in vivo
[46] = AUC (0 to infinity) in portal cannulated Beagle dog at 1 mg/kg, po; type: ADME, organism-based, Canis lupus familiaris; parameters: time infinity, dose 1 mg/kg, route oral; details: plasma
[47] = AUC (0 to infinity) in Beagle dog at 0.5 mg/kg, po; type: ADME, organism-based, Canis lupus familiaris; parameters: time infinity, dose 0.5 mg/kg, route oral; details: plasma
[48] = AUC (0 to infinity) in Beagle dog at 5 mg/kg, po; type: ADME, organism-based, Canis lupus familiaris; parameters: time infinity, dose 5 mg/kg, route oral; details: plasma
[49] = Tmax in rat at 300 mg/kg, po; type: ADME, organism-based; parameters: dose 300 mg/kg, route oral; details: in vivo
[50] = Tmax in Beagle dog at 0.5 mg/kg, po; type: ADME, organism-based, Canis lupus familiaris; parameters: dose 0.5 mg/kg, route oral; details: in vivo
[51] = Tmax in Beagle dog at 5 mg/kg, po; type: ADME, organism-based, Canis lupus familiaris; parameters: dose 5 mg/kg, route oral; details: in vivo
[52] = Bioavailability in rat at 3 mg/kg, po; type: ADME, organism-based; details: in vivo
[53] = Bioavailability in rat at 300 mg/kg, po; type: ADME, organism-based; details: in vivo
[54] = Bioavailability in Beagle dog at 0.5 mg/kg, po; type: ADME, organism-based, Canis lupus familiaris; details: in vivo
[55] = system: Canis familiaris; test: Effect on body weight in obese Beagle dog assessed as weight loss at 0.39 mg/kg, po after 3 months relative to control; type: functional, Canis lupus familiaris
[56] = system: Canis familiaris; test: Increase in fecal fat in obese Beagle dog at 0.39 mg/kg, po after 3 months; type: functional, Canis lupus familiaris, Feces
[57] = Permeability from basolateral to apical side of the Caco-2 cell membrane at 10 uM in presence of calcium; type: ADME, cell-based; details: human
[58] = molecular target: Cytochrome P450 2C9 (Homo sapiens, UniProt P11712); test: Inhibition of CYP2C9; type: ADME
[59] = molecular target: Cytochrome P450 2C19 (Homo sapiens, UniProt P33261); test: Inhibition of CYP2C19; type: ADME
[60] = molecular target: Cytochrome P450 3A4 (Homo sapiens, UniProt P08684); test: Inhibition of CYP3A4; type: ADME
Chain of Cytochrome P450 3A4 (P08684 whole entry): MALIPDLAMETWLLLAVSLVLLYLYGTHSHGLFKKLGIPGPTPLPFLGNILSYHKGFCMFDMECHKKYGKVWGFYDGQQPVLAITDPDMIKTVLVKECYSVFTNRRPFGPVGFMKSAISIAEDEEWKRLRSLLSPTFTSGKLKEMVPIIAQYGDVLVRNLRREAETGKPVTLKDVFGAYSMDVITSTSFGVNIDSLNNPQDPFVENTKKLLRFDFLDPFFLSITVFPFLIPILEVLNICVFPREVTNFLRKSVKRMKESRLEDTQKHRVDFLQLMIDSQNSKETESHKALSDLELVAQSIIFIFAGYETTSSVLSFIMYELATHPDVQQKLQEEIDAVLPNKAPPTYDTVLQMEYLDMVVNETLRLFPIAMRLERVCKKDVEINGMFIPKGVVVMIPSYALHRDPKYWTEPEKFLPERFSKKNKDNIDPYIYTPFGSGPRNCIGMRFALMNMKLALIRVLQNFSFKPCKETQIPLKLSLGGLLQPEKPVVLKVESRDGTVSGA

Chain of Delta-type opioid receptor (Homo sapiens) (P41143 whole entry): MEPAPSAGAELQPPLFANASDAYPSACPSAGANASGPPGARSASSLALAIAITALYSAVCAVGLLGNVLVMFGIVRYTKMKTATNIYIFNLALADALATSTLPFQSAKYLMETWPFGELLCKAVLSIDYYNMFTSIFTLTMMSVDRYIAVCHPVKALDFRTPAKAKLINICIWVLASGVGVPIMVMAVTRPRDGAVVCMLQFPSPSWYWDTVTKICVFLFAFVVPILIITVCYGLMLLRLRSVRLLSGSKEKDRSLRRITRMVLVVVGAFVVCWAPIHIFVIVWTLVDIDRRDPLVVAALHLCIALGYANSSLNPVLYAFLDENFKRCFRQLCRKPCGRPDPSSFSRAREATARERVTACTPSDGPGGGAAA
Chain of B2 bradykinin receptor (Homo sapiens) (P30411 whole entry): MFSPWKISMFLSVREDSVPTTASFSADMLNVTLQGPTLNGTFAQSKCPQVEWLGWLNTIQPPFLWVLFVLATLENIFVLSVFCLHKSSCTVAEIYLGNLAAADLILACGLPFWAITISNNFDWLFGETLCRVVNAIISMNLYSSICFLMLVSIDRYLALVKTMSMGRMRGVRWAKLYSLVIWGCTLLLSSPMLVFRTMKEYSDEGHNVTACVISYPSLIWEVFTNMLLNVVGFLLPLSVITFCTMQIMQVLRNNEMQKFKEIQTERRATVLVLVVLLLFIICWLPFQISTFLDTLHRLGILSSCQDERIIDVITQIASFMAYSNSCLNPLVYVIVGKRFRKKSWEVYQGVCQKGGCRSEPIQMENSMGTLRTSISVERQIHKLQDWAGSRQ
Chain of Muscarinic acetylcholine receptor M4 (Homo sapiens) (P08173 whole entry): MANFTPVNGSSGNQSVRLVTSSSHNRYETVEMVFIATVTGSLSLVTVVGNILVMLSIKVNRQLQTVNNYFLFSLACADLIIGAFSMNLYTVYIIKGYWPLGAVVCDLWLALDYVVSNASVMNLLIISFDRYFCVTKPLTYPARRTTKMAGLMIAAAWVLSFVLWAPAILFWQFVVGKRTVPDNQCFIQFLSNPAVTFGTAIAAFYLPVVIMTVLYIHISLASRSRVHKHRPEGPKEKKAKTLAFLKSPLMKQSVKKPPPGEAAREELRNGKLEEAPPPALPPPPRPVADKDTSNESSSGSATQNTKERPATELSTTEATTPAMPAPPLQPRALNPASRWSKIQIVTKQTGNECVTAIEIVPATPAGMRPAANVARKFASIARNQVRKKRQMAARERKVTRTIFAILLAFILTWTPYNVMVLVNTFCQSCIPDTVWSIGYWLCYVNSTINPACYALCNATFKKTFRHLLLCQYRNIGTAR
Chain of Cytochrome P450 2C9 (P11712 whole entry): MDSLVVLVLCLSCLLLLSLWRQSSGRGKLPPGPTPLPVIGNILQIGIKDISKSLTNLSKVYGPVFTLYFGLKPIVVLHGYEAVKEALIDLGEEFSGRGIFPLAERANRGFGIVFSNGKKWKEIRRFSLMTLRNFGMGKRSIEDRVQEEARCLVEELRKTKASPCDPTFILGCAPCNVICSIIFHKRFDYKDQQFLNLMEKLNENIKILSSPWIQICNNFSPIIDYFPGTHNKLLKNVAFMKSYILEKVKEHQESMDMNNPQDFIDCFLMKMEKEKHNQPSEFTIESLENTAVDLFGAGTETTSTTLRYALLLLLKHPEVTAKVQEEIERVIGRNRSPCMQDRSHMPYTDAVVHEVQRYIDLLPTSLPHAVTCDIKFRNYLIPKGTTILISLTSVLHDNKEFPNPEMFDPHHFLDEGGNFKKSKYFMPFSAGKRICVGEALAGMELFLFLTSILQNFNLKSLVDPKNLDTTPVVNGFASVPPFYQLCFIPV
Chain of 5-hydroxytryptamine receptor 1A (Homo sapiens) (P08908 whole entry): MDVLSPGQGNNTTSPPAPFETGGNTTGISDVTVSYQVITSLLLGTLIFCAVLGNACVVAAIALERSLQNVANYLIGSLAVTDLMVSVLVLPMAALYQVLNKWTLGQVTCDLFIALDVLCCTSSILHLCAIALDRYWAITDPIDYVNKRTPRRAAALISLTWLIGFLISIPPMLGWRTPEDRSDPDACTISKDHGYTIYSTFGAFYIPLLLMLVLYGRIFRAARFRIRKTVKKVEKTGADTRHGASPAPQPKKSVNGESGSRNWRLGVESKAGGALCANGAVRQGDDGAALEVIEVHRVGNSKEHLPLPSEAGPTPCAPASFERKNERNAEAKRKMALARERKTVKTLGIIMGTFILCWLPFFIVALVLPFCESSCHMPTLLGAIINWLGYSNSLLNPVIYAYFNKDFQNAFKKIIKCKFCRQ
Chain of Platelet-activating factor receptor (Homo sapiens) (P25105 whole entry): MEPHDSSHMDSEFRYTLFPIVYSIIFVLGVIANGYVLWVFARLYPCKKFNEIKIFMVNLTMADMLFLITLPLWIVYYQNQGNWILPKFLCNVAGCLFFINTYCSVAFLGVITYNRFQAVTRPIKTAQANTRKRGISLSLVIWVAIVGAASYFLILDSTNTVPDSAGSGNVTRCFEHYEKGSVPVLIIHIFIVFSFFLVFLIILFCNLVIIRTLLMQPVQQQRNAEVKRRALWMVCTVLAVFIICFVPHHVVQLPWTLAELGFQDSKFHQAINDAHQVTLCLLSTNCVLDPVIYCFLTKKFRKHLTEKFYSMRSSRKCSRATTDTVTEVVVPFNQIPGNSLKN
Chain of Melanocortin receptor 4 (Homo sapiens) (P32245 whole entry): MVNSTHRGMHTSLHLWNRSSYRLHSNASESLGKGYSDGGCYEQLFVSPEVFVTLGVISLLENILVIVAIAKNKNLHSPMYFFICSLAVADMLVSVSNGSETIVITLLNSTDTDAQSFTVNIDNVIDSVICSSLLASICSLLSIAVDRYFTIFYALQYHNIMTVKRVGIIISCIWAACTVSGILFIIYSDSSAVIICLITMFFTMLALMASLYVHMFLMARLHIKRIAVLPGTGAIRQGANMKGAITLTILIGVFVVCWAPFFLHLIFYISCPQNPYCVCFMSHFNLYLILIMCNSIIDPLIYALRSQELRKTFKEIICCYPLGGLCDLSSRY
Chain of Histamine H3 receptor (Homo sapiens) (Q9Y5N1 whole entry): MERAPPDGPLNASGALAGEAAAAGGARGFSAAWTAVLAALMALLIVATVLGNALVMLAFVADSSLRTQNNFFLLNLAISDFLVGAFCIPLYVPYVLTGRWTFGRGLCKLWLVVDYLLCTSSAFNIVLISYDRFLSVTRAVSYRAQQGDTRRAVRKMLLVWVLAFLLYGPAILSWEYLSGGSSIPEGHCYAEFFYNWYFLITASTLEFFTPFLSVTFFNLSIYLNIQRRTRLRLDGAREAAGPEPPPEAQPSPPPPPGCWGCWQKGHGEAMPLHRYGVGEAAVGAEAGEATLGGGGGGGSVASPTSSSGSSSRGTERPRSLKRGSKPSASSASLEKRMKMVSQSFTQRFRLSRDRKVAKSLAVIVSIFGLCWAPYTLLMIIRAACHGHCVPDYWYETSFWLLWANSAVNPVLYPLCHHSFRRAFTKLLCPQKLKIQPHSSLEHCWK
Chain of 5-hydroxytryptamine receptor 2A (Homo sapiens) (P28223 whole entry): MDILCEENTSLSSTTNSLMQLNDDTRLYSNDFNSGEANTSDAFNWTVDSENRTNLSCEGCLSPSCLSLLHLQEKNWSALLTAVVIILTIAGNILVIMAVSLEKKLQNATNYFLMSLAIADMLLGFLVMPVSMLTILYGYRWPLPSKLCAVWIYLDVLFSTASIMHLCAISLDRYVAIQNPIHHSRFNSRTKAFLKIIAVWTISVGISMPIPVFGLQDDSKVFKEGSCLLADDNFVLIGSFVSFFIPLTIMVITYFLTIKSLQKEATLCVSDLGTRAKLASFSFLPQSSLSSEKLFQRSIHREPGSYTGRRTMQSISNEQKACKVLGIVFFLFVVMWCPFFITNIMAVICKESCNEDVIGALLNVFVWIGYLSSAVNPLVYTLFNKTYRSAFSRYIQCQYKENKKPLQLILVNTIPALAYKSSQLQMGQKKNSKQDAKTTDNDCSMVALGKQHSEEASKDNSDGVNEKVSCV
Chain of Type-2 angiotensin II receptor (Homo sapiens) (P50052 whole entry): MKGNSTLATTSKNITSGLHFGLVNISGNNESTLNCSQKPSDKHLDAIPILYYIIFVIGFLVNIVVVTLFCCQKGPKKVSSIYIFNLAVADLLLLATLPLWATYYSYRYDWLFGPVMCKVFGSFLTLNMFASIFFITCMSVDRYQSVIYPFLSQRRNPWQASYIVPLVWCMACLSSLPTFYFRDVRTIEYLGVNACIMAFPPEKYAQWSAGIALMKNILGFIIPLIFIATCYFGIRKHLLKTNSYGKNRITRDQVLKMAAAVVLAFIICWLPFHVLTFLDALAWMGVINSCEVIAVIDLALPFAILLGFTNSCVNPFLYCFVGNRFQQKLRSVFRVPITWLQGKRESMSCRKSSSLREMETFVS
Chain of Adenosine receptor A1 (Homo sapiens) (P30542 whole entry): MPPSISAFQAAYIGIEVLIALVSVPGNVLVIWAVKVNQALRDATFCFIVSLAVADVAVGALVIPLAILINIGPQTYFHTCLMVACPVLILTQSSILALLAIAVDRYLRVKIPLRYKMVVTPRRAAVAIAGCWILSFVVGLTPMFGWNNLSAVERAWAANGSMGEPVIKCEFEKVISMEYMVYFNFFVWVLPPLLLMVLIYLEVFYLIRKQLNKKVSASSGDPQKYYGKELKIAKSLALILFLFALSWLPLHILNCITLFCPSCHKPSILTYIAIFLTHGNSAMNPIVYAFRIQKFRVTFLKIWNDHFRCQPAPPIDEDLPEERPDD

CN(Cc1ccccc1)C(=O)[C@@H](NC(=O)c1cc2cc(NC(=O)c3ccccc3-c3ccc(C(F)(F)F)cc3)ccc2n1C)c1ccccc1 [DIRLOTAPIDE]
Activity [1]: inactive
Activity [2]: inactive
Activity [3]: inactive
Activity [4]: inactive
Activity [5]: inactive
Activity [6]: inactive
Activity [7]: inactive
Activity [8]: inactive
Activity [9]: inactive
Activity [10]: inactive
Activity [11]: inactive
Activity [12]: inactive
Activity [13]: inactive
Activity [14]: inactive
Activity [15]: inactive
Activity [16]: inactive
Activity [17]: inactive
Activity [18]: inactive
Papp A→B at 1 µM [19]: 6 nm/s
CLint scaled [20]: 50.1 L/h/kg
CLint scaled [21]: 5.46 L/h/kg
half-life at 0.5 µM [22]: 0.8 h
half-life at 0.5 µM [23]: 1.17 h
half-life at 0.5 µM [24]: 0.6 h
half-life at 0.5 µM [25]: 0.75 h
Fu [26]: 0.026%
Fu [27]: 0.0097%
blood plasma ratio [28]: 0.54
ED25 [29]: 6 mg/kg
clearance [30]: 2.22 L/h/kg
clearance [31]: 0.84 L/h/kg
clearance [32]: 0.33 L/h/kg
clearance [33]: 0.72 L/h/kg
Vd [34]: 3.3 L/kg
Vd [35]: 1 L/kg
half-life [36]: 11.3 h
half-life [37]: 14 h
half-life [38]: 7.8 h
AUC(0-t) [39]: 0.485 µg·h/mL
AUC(0-t) [40]: 1.49 µg·h/mL
AUC(0-inf) [41]: 3.61 µg·h/mL
AUC(0-inf) [42]: 2.83 µg·h/mL
half-life [43]: 6.3 h
half-life [44]: 6.3 h
half-life [45]: 14.1 h
AUC(0-inf) [46]: 0.289 µg·h/mL
AUC(0-inf) [47]: 0.663 µg·h/mL
AUC(0-inf) [48]: 1.93 µg·h/mL
Tmax [49]: 6 h
Tmax [50]: 3 h
Tmax [51]: 3 h
bioavailability [52]: 2.6%
bioavailability [53]: 1%
bioavailability [54]: 43%
Activity [55]: 18.8%
Activity [56]: 1.86%
Papp B→A at 10 µM [57]: 3 nm/s
IC50 [58]: > 30 µM
IC50 [59]: > 30 µM
IC50 [60]: > 30 µM
